Assay results reported in patent US20110189095A1, “CRKL TARGETING PEPTIDES” (The Board of Regents, of the University of Texas System, priority 2008, published 2011).
Ends that are not written are not given here.

What was measured:
[1] = target: CRKL binding to β1 integrin (Homo sapiens, UniProt P46109); assay: Protein-protein interaction between CRKL and β1 integrin, inhibition assay
Experimental: Phage binding assays on purified proteins were carried out as described (Giordano et al. 2001). Recombinant proteins were coated on microtiter wells as previous described (Cardo-Vila et al., 2003; Smith and Scott, 1993). Briefly, proteins were immobilized on microtiter wells overnight at 4° C. 50 μl of 1 μg/ml in PBS. Wells were washed twice with PBS, blocked with PBS containing 3% BSA for 2 hours at room temperature, and incubated with 10^9 T.U. wild-type tumor-homing phage ([…]; SEQ ID NO:1), scrambled phage ([…] (SEQ ID NO:26), […] (SEQ ID NO:27), […] (SEQ ID NO:29), […] (SEQ ID NO:30)), mutant phage ([…] (SEQ ID NO:25), […] (SEQ ID NO:28)), PSI-derived cyclic phage (CNSTFLQEGMPTSAC; SEQ ID NO:23) or fd-tet phage in 50 μl of PBS containing 1.5% BSA. After 1 hour at room temperature, wells were washed ten times with PBS and phage were recovered by bacterial infection. ELISA with polyclonal anti-CKRL confirmed the presence and concentration of the CKRL recombinant proteins on the wells. […] After 3 hours, binding of CKRL to integrins was detected by using an anti-CKRL antibody followed by an HRP-conjugated anti-rabbit IgG. […]

[2] = system: human prostate cancer xenografts (DU145-derived); assay: Therapy in tumor-bearing mice (tumor volume); format: in vivo, nude mice; details: equimolar amounts, systemically administered, vs untreated or vehicle
Source text: Finally, a pilot pre-clinical trial that included four cohorts of size-matched tumor-bearing mice was designed and conducted (FIG. 11). Animals received the following reagents: (i) the synthetic PSI domain-mimic peptide, (ii) the synthetic PSI domain-mimic peptide linked to a pro-apoptotic peptidomimetic (Arap et al., 2004; Ellerby et al., 1999; Kolonin et al., 2004; Zurita et al., 2004) in order to induce targeted apoptosis upon receptor-mediated internalization, (iii) the synthetic pro-apoptotic peptidomimetic alone, or (iv) vehicle alone. All peptides or peptidomimetics were administered at equimolar concentrations.
DU145 tumor-bearing mice were size-matched and divided into individual cohorts (n=4 mice per group). The tumor-homing peptide […] (SEQ ID NO:1) was synthesized fused with the proapoptotic motif D(KLAKLAK)2. Unconjugated peptide […] (SEQ ID NO:1) or D(KLAKLAK)2 served as controls. The synthetic peptides were systemically administered and tumor volumes measured as described (Arap et al., 1998; Arap et al., 2004).

DU145 cells = assay: Peptide internalization assay (WST-1 cell viability, annexin-V staining); format: cell-based, human
Experimental: The internalization capability of the tumor-homing peptide fused through a glycinylglycine bridge to a pro-apoptotic sequence was tested as described Arap et al., 2004; Ellerby et al., 1999; Kolonin et al., 2004; Zurita et al., 2004). The conjugated tumor-homing peptide, […] (SEQ ID NO:67)-D(KLAKLAK)2 or the untargeted control peptide D(KLAKLAK)2 were synthesized and increasing equimolar peptide concentrations were added to the DU145 cells. Cell viability was assayed by the WST-1 reagent (Roche) and annexin-V staining for apoptosis (Zurita et al., 2004; Cardo-Vila et al., 2003). For tumor-homing phage localization studies, cells were incubated with 10^9 T.U. tumor-homing ([…]; SEQ ID NO:1) or a negative control (fd-tet) phage for 6 and 24 hours. Wells were washed with 20 mM glycine to remove non-specific cell surface bound phage and then fixed with 4% paraformaldehyde. The non-permeabilized cells were incubated with rabbit anti-fd bacteriophage antibody (Sigma) for 2 hours at room temperature followed by 1 hour incubation with Cy3-labeled anti-rabbit IgG antibody (Jackson ImmunoResearch). Cells were again fixed with 4% paraformaldehyde and mounted in the presence of DAPI (Vector Laboratories) and images were acquired with an Olympus fluorescence microscope.

rCRKL-SH3 (C) domain [3] = target: T1, rCRKL-SH3 (C) domain (Homo sapiens, UniProt P46109); assay: Peptide binding assay with recombinant His-tag proteins (ELISA); details: peptide coated on microtiter plates
T1 construct: cDNAs corresponding to each of the SH domains were PCR-amplified and cloned into the Sac I and Xho I restriction sites; His-tag; made in house; host or cells: E. coli BL21
Experimental: (§1) Synthetic tumor-homing peptide ([…]; SEQ ID NO:1) or PSI-derived peptide (NSTFLQEGMPTSA; SEQ ID NO:23) were coated on microtiter plates followed by blocking, and washing. The following recombinant His-tag proteins were added to the coated plates: rCRKL, rCRKL-SH2 domain, rCRKL-SH3 (N) domain, and rCRKL-SH3 (C) domain. An unrelated control protein (α2-Heremans-Schmid glycoprotein; AHSG) served as a negative control. The mixtures were incubated, washed, and labeled with the appropriate antibodies. Secondary antibodies conjugated to horse-radish peroxidase (HRP) were added followed by adding TMB substrate (Calbiochem), and analyzed by an automated ELISA reader (Bio-Tek). To determine the inhibitory activity of the tumor-homing peptide, the PSI-derived peptide, or the phage clone displaying the corresponding tumor-homing peptide were incubated with the rCRKL-SH3 (C) domain. Unrelated cyclic peptide sequences and insertless phage (fd-tet) served as negative controls. The admixtures were incubated and added to wells coated with the tumor-homing peptide. After incubation, the wells were washed, labeled with the appropriate antibodies, and processed as above.

rCRKL = target: T2, rCRKL (Homo sapiens, UniProt P46109); assay: as above; details: peptide coated on microtiter plates
T2 construct: The open reading frame of full-length CRKL cDNA (Invitrogen) was PCR-amplified and cloned in a pET28a (Novagen) expression vector; His-tag; made in house; host or cells: E. coli BL21
Experimental: as §1

rCRKL-SH3 (N) domain = target: T3, rCRKL-SH3 (N) domain (Homo sapiens, UniProt P46109); assay: as above; details: peptide coated on microtiter plates
T3 construct: cDNAs corresponding to each of the SH domains were PCR-amplified and cloned into the Sac I and Xho I restriction sites; His-tag; made in house; host or cells: E. coli BL21
Experimental: as §1

rCRKL-SH3 (C) domain [4] = target: T1, rCRKL-SH3 (C) domain; assay: Inhibition of rCRKL-SH3 (C) domain binding to coated tumor-homing peptide; details: inhibitor pre-incubated with rCRKL-SH3 (C)
Experimental: as §1

[5] = system: KS1767 and DU145 human tumor xenografts and EF43-FGF4 mouse mammary carcinoma; assay: In vivo homing of targeted or control phage in mice bearing different tumor types; details: systemic administration; KS1767, DU145 and EF43-FGF4 models
Experimental: The tumor targeting attributes of CRKL-binding phage in tumor-bearing mice was evaluated next. First, phage constructs displaying either the selected CRKL-binding peptide or a panel of control (mutant or scrambled) peptides were designed and produced. Phage clones were tested in human tumor xenografts (Kaposi sarcoma KS1767 cells and prostate carcinoma DU145 cells) and an isogenic mouse tumor model (EF43-FGF4 mammary carcinoma).
In vivo targeting experiments with phage were performed as described (Hajitou et al., 2006; Arap et al., 1998; Arap et al., 2004; Kolonin et al., 2004; Marchio et al., 2004). Animals used in experiments were: Male nude mice bearing human DU145 xenografts or female nude mice with human Kaposi sarcoma KS1767-derived xenografts subcutaneously and immunocompetent Balb/c female mice bearing EF43-FGF4-derived breast tumors orthotopically in the mammary fat pad. Briefly, mice bearing tumors (˜8 mm) were anesthetized and injected intravenously via tail vein with 5×10^10 T.U. per mouse of wild-type […] (SEQ ID NO:1)-phage, or negative controls: fd-tet phage (insertless) and scrambled […] (SEQ ID NO:26)-phage, […] (SEQ ID NO:27)-phage, […] (SEQ ID NO:29)-phage, […] (SEQ ID NO:30)-phage or mutants […] (SEQ ID NO:25)-phage and […] (SEQ ID NO:28)-phage. Cohorts of two mice with size-matched tumors received each set of phage clones. After 24 hours, tumors were dissected from each mouse and phage recovered by bacterial infection and normalized by weight of tissue. The experiments were repeated twice for each tumor model. […] The fd phage served a negative control and the RGD-4C (Hajitou et al., 2006; Arap et al., 1998) served as a positive control. Only minimal background apoptosis (<1% of the total cells) were detected by TUNEL staining (Promega) on paraffin-embedded tumor tissue sections.

CRKL secretion = CRKL secretion inhibition study (immunoprecipitation from serum-free medium); format: cell-based; details: cells incubated with compound in serum-free medium for 9 hours
Experimental: Cells were synchronized for 24-48 hours in RPMI serum-free medium followed by a spin and filtration through a 0.22 μm filter, and pre-absorbed to control antibodies. An equal volume of PBS was added to the recovered supernatant prior to immunoprecipitating with the appropriate antibodies. Brefeldin A, glybenclamide, and thapsigargin were used for secretion inhibition studies. Cells were incubated with the compounds in serum-free medium for 9 hours prior to immunoprecipitation with the appropriate antibodies. No detergents were used in the immunoprecipitation studies. By using the methodology described above, CRKL is found in a free soluble state and not in vesicles.

T1 sequence (P46109 235-296 limits assumed): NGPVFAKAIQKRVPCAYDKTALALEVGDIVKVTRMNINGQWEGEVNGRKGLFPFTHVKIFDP
CRKL binding to β1 integrin, sequence (P46109 whole entry): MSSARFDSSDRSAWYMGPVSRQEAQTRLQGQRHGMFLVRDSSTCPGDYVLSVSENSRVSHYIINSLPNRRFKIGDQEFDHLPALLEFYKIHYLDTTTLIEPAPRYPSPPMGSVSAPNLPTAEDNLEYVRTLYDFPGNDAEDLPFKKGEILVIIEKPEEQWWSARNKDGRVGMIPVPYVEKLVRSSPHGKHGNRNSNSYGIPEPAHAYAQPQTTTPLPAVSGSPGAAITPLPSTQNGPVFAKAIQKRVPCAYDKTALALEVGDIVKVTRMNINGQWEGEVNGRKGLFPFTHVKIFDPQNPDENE
T3 sequence (P46109 123-183 limits assumed): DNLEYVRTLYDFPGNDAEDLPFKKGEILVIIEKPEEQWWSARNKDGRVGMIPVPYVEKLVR
T2 sequence (P46109 whole entry): as the sequence (P46109 whole entry) above

gst-PSI: recombinant gst fusion protein of the entire PSI domain of β1 integrin (CLKANAKSCGECIQAGPNCGWCTNSTFLQEGMPTSARCDDLEALKKKGC; cysteine pairing not given here; also: N-terminal GST fusion, not written)
inhibition of CRKL binding to β1 integrin ([1]; up to 800 ηm): concentration-dependent inhibition | IC50 ([1]; wells coated with α5β1 integrin): 20 nM

D(KLAKLAK)2 [reference compound]
tumor growth / tumor volume [2]: no differences in tumor volume

YRCTLNSPFFWEDMTHECHAGG (SEQ ID NO:67)-D(KLAKLAK)2
tumor growth / tumor volume [2]: Markedly reduced tumor growth | tumor growth / tumor volume ([2]; listed as targeted pro-apoptotic peptidomimetic): significantly inhibited | programmed cell death (annexin-V staining) (DU145 cells; DU145 cells): Programmed cell death was confirmed | internalization (DU145 cells; DU145 cells, measured by cell viability and annexin-V): enables internalization | cell killing (cell viability, WST-1) (DU145 cells; increasing equimolar concentrations, control D(KLAKLAK)2): Targeted cell killing relative to controls

NSTFLQEGMPTSA (listed as Homo sapiens) [synthetic peptide derived from the native PSI domain of β1 integrin, residues 50 to 62]
binding to rCRKL-SH3 (C) domain (rCRKL-SH3 (C) domain [3]): bound | binding to rCRKL (rCRKL): bound | binding to rCRKL-SH3 (N) domain (rCRKL-SH3 (N) domain): bound | inhibition of binding of the tumor-homing peptide to rCRKL-SH3 (C) domain (rCRKL-SH3 (C) domain [4]): inhibited

YRCTLNSAFFWEDMTHECHA
tumor homing / tumor targeting [5]: no tumor targeting

YRFCTSPFHEWHLENTDMCA
tumor homing / tumor targeting [5]: no tumor targeting

YRCETDSPHEFHLWNTFCAM
tumor homing / tumor targeting [5]: no tumor targeting activity

YRCTLNSPAAAEDMTHECHA
tumor homing / tumor targeting [5]: no tumor targeting activity

C/C=C(/C)C(=O)O[C@H]1C(C)=C2[C@H]([C@@H]1OC(=O)CCCCCCC)[C@@](C)(OC(C)=O)C[C@H](OC(=O)CCC)[C@@]1(O)[C@H]2OC(=O)[C@@]1(C)O [thapsigargin]
CRKL secretion / release (CRKL secretion): do not appear to inhibit

YRECTDSPHEFHLWNTMCAF
tumor homing / tumor targeting [5]: no tumor targeting

C[C@H]1CCC/C=C/[C@@H]2C[C@H](O)C[C@H]2[C@H](O)/C=C/C(=O)O1 [brefeldin A]
CRKL secretion / release (CRKL secretion): do not appear to inhibit

YRCETDSPHEFHLWNTMCAF
tumor homing / tumor targeting [5]: no tumor targeting activity

COc1ccc(Cl)cc1C(=O)NCCc1ccc(S(=O)(=O)NC(=O)NC2CCCCC2)cc1 [glybenclamide]
CRKL secretion / release (CRKL secretion): does prevent
